Results: PMC6220849, “Mechanistic and structural studies of KDM‐catalysed demethylation of histone 1 isotype 4 at lysine 26” (Febs Letters, 2018)
Ends that are not written are not given here. Me3 = N-epsilon-trimethyl on lysine

T1: recombinant human KDM4A (Homo sapiens, UniProt O75164)
T1 construct: recombinantly expressed as reported either in Escherichia coli (KDM2A1–557 25, KDM4A1–359 26); His6 (N); made in house; host or cells: Escherichia coli
T1 sequence (O75164 1-359): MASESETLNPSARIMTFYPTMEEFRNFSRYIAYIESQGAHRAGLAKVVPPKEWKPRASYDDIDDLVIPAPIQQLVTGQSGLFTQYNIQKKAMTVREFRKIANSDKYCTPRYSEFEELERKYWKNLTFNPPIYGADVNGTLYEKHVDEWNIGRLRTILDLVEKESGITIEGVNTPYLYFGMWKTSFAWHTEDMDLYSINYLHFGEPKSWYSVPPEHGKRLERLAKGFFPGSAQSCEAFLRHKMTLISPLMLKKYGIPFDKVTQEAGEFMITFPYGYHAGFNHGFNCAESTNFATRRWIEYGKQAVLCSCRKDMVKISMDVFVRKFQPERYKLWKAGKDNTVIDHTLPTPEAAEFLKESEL

T2: KDM4A(1-359), catalytic domain of human histone lysine demethylase KDM4A (human, UniProt O75164 1-359)
T2 construct: KDM4A, human, catalytic domain, residues 1-359; In the crystal the active site holds Ni(II) (in place of Fe(II)) and N-oxalylglycine (NOG)
T2 sequence (looked up): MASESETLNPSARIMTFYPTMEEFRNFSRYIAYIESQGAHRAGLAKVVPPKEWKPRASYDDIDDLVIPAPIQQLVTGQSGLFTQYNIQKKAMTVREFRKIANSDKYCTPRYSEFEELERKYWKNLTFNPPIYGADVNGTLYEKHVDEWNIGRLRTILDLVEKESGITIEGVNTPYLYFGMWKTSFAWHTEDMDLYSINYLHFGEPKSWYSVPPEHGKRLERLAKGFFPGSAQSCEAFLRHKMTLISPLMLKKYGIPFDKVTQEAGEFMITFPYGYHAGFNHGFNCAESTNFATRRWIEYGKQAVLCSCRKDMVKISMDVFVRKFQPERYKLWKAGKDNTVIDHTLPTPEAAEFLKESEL


What was measured:
recombinant human KDM4A = target: T1, recombinant human KDM4A; test: Formaldehyde dehydrogenase (FDH)-coupled demethylation assay, Michaelis–Menten kinetics; assay type: biochemical; settings: peptide as substrate
Procedure: Kinetic parameters for KDM4 enzymes were determined by use of an FDH (formaldehyde dehydrogenase)/NAD^+‐coupled) assay for quantification of the formaldehyde reaction byproduct, as previously described 27. […] Specific activities were measured using a 100‐μM peptide. For Michaelis–Menten experiments, peptide concentrations were varied. Reactions were monitored using a PHERAstar FS plate reader (BMG Labtech, Ortenberg, Germany) with 355 nm excitation and 460 nm emission. Kinetic parameters were calculated from the reaction rate during the initial linear phase of formaldehyde production, which were used to calculate specific activities or fitted to Michaelis–Menten equations using […] PRISM (GraphPad Software, La Jolla, CA, USA).
Michaelis–Menten kinetics were then conducted with KDM4A. Samples containing KDM4A, 2OG, ascorbate, H1.4K26me3 peptide, NAD^+ and FDH were analysed over time and kinetic parameters were determined by recording the initial reaction rates of NADH production (corresponding to enzymatic production of formaldehyde) at varying peptide concentration.

[1] = target: T2, KDM4A(1-359), catalytic domain of human …; test: crystal structure; co-crystals of KDM4A(1-359).Ni(II).H1.4(18-32)K26me3.NOG; sitting drops at 4 °C, 0.1 M MIB buffer pH 6.0, 25% w/v PEG 1500; 10 mg/mL KDM4A, 5 mM peptide, 5 mM NOG, 4 mM NiCl2; settings: both partners purified
[2] = concentration varied, FDH/NAD+-coupled fluorescence assay, 50 mM HEPES pH 7.5, 0.01% Tween-20, 2OG 200 μM, KDM4A, mean and standard deviation of three independent replicates, SD

K M (recombinant human KDM4A; [2]) [µM] | k cat (recombinant human KDM4A; [2]) [s⁻¹] | k cat/K M (recombinant human KDM4A; FDH-coupled assay, ratio of k cat (s^−1) and K M (μM)) [M⁻¹ s⁻¹] | binding result [1] | Molecule
66.8 ± 5.4 | 0.12 ± 0.004 | 1900 |  | APATGGV-Kme3-KPHRYRP [H3(29–43)K36me3, histone H3 residues 29–43 peptide with Kme3 at K36, reference compound]
 |  |  | binds | TPVKKKARK(Me3)SAGAAK-NH2 (histone H1.4 (histone 1 isotype 4), residues 18-32; only residues 24-29 are seen in the crystal structure; also called H1.4K26me3; H1.4K26me3 peptide; source: synthetic peptide) [H1.4(18–32)K26me3 peptide (histone 1 isotype 4, residues 18-32, N-epsilon-trimethyllysine at K26)]
